# Reference: patent US8143418B2, “Dimeric small molecule potentiators of apoptosis” (Board of Regents, The University of Texas System, priority 2004, dated 2012)
# System: Wap-ras tumors
# Assay: In vivo therapy in the WAP-RAS transgenic model
# Set-up: species or system mice
# Conditions: mimetic 20 mpk po every 12 hours; Paclitaxel 5 mpk ip
# Description: Mimetic and Paclitaxel combination efficacy is also evaluated in the Wap-ras transgenic model.
# Mimetics (20 mpk/dosing po) were dissolved in 20% hydroxyl-propyl-betacyclodexatrin (Vehicle I). 0.2 ml of mimetic solution is the oral dosing volume. Paclitaxel (5 mpk/dosing ip) was dissolved in a diluted ethanol/cremophor EL solution (vehicle II) and the i.p. dosing volume for paclitaxel was 0.1 ml.
# The mice are weighed, randomized, and ear-marked on Day 0. Mimetic treatment and Vehicle I treatment began on Day 1 and continued every 12 hours until Day 21. Paclitaxel and Vehicle II treatments are started on Day 4 and continued daily on Day 5, 6, and 7.
smiles,measurement,value
CC(=O)O[C@H]1C(=O)[C@@]2(C)[C@H]([C@H](OC(=O)c3ccccc3)[C@]3(O)C[C@H](OC(=O)[C@H](O)[C@@H](NC(=O)c4ccccc4)c4ccccc4)C(C)=C1C3(C)C)[C@]1(OC(C)=O)CO[C@@H]1C[C@@H]2O [Paclitaxel],tumor response to treatment,do not respond
